{
  "source": "patent US6358885B1",
  "about": "“Substituted phenylheterocyclic herbicides” (Mississippi State University, priority 1992, dated 2002)",
  "key": {"barnyardgrass": {"tested_on": "barnyardgrass", "test": "Test E paddy water application plant response rating 0 to 100", "format": "in vivo, Echinochloa crus-galli", "settings": "Flood, 0 to 100 scale, approx. 21 days", "excerpt": "(§1) Plastic pots were partially filled with silt loam soil. […] At testing, the water level for all plantings was raised to 2 cm above the soil surface. Chemical treatments were formulated in a non-phytotoxic solvent and applied directly to the paddy water. Treated plants and controls were maintained in a greenhouse for approximately 21 days, after which all species were compared to controls and visually evaluated. […] A dash (-) response means no test result."}, "rape": {"tested_on": "rape", "test": "Test F preemergence/postemergence greenhouse plant response rating 0 to 100", "format": "in vivo, Brassica napus", "settings": "POSTEMERGENCE, 0 to 100 scale", "excerpt": "(§2) Compounds evaluated in this test were formulated in a non-phytoxic solvent and applied to the soil surface before plant seedlings emerged (preemergence application) and to plants that were in the one-to-four leaf stage (postemergence application). A sandy loam soil was used for the preemergence test while a mixture of sandy loam soil and greenhouse potting mix in a 60:40 ratio was used for the postemergence test. Test compounds were applied within approximately one day after planting seeds for the preemergence test. Plantings of these crops and weed species were adjusted to produce plants of appropriate size for the postemergence test. All plant species were grown using normal greenhouse practices. Crop and weed species include winter barley (Hordeum vulgare cv. ‘Igri’), blackgrass (Alopecurus myosuroides), chickweed (Stellaria media), downy brome (Bromus tectorum), field violet (Viola arvensis), galium (Galium aparine), green foxtail (Setaria viridis), kochia (Kochia scoparia), lambsquarters (Chenopodium album), speedwell (Veronica persica), rape (Brassica napus), ryegrass (Lolium multiflorum), sugar beet (Beta vulgaris cv. ‘USl’), sunflower (Helianthus annuus cv. ‘Russian Giant’), spring wheat (Triticum aestivum cv. ‘ERA’), winter wheat (Triticum aestivum cv. ‘Talent’), wild buckwheat (Polygonum convolvulus), wild mustard (Sinapis arvensis), wild oat (Avena fatua), and wild radish (Raphanus raphanistrum). Blackgrass, galium and wild oat were treated at two growth stages. […] Treated plants and untreated controls were maintained in a greenhouse for approximately 21 to 28 days, after which all treated plants were compared to untreated controls and visually evaluated. […] A dash response (-) means no test result."}, "blackgrass": {"tested_on": "blackgrass", "test": "Test F preemergence/postemergence greenhouse plant response rating 0 to 100", "format": "in vivo, Alopecurus myosuroides", "settings": "POSTEMERGENCE, 0 to 100 scale; for Blackgrass (1) plant response rating: stage (1) two to three leaves; for Blackgrass (2) plant response rating: stage (2) approximately four leaves or initial tillering", "excerpt": "as §2"}, "wild buckwheat": {"tested_on": "wild buckwheat", "test": "Test F preemergence/postemergence greenhouse plant response rating 0 to 100", "format": "in vivo, Polygonum convolvulus", "settings": "POSTEMERGENCE, 0 to 100 scale", "excerpt": "as §2"}, "sunflower": {"tested_on": "sunflower", "test": "Test F preemergence/postemergence greenhouse plant response rating 0 to 100", "format": "in vivo, Helianthus annuus cv. ‘Russian Giant’", "settings": "POSTEMERGENCE, 0 to 100 scale", "excerpt": "as §2"}, "Japonica rice": {"tested_on": "Japonica rice", "test": "Test E paddy water application plant response rating 0 to 100", "format": "in vivo, oryza sativa", "settings": "Flood, 0 to 100 scale, approx. 21 days", "excerpt": "as §1"}, "field violet": {"tested_on": "field violet", "test": "Test F preemergence/postemergence greenhouse plant response rating 0 to 100", "format": "in vivo, Viola arvensis", "settings": "POSTEMERGENCE, 0 to 100 scale", "excerpt": "as §2"}},
  "data": [
    {"smiles": "C#CC(C)N1C(=O)COc2cc(F)c(-c3nn4c(c3Cl)CCCC4)cc21", "note": "(centres unmarked) [Compound 50]", "values": [
      {"measurement": "Barnyardgrass 2 plant response rating", "setting": "barnyardgrass; Rate 8 g/ha", "result": 15},
      {"measurement": "Barnyardgrass 3 plant response rating", "setting": "barnyardgrass; Rate 8 g/ha", "result": 10},
      {"measurement": "Barnyardgrass 2 plant response rating", "setting": "barnyardgrass; Rate 16 g/ha", "result": 15},
      {"measurement": "Barnyardgrass 3 plant response rating", "setting": "barnyardgrass; Rate 16 g/ha", "result": 15},
      {"measurement": "Barnyardgrass 2 plant response rating", "setting": "barnyardgrass; Rate 32 g/ha", "result": 25},
      {"measurement": "Barnyardgrass 3 plant response rating", "setting": "barnyardgrass; Rate 32 g/ha", "result": 20},
      {"measurement": "Barnyardgrass 2 plant response rating", "setting": "barnyardgrass; Rate 64 g/ha", "result": 35},
      {"measurement": "Barnyardgrass 3 plant response rating", "setting": "barnyardgrass; Rate 64 g/ha", "result": 35},
      {"measurement": "Barnyardgrass 2 plant response rating", "setting": "barnyardgrass; Rate 125 g/ha", "result": 55},
      {"measurement": "Barnyardgrass 3 plant response rating", "setting": "barnyardgrass; Rate 125 g/ha", "result": 60},
      {"measurement": "Rape plant response rating", "setting": "rape; Rate 16 g/ha", "result": 100},
      {"measurement": "Rape plant response rating", "setting": "rape; Rate 32 g/ha", "result": 100},
      {"measurement": "Rape plant response rating", "setting": "rape; Rate 64 g/ha", "result": 100},
      {"measurement": "Rape plant response rating", "setting": "rape; Rate 125 g/ha", "result": 100},
      {"measurement": "Blackgrass (1) plant response rating", "setting": "blackgrass; Rate 16 g/ha", "result": 0},
      {"measurement": "Blackgrass (2) plant response rating", "setting": "blackgrass; Rate 16 g/ha", "result": 0},
      {"measurement": "Blackgrass (1) plant response rating", "setting": "blackgrass; Rate 32 g/ha", "result": 0},
      {"measurement": "Blackgrass (2) plant response rating", "setting": "blackgrass; Rate 32 g/ha", "result": 0},
      {"measurement": "Blackgrass (1) plant response rating", "setting": "blackgrass; Rate 64 g/ha", "result": 0},
      {"measurement": "Blackgrass (2) plant response rating", "setting": "blackgrass; Rate 64 g/ha", "result": 0},
      {"measurement": "Blackgrass (1) plant response rating", "setting": "blackgrass; Rate 125 g/ha", "result": 40},
      {"measurement": "Blackgrass (2) plant response rating", "setting": "blackgrass; Rate 125 g/ha", "result": 20},
      {"measurement": "Wild buckwheat plant response rating", "setting": "wild buckwheat; Rate 16 g/ha", "result": 40},
      {"measurement": "Wild buckwheat plant response rating", "setting": "wild buckwheat; Rate 32 g/ha", "result": 100},
      {"measurement": "Wild buckwheat plant response rating", "setting": "wild buckwheat; Rate 64 g/ha", "result": 100},
      {"measurement": "Wild buckwheat plant response rating", "setting": "wild buckwheat; Rate 125 g/ha", "result": 100},
      {"measurement": "Sunflower plant response rating", "setting": "sunflower; Rate 16 g/ha", "result": 40},
      {"measurement": "Sunflower plant response rating", "setting": "sunflower; Rate 32 g/ha", "result": 60},
      {"measurement": "Sunflower plant response rating", "setting": "sunflower; Rate 64 g/ha", "result": 60},
      {"measurement": "Sunflower plant response rating", "setting": "sunflower; Rate 125 g/ha", "result": 100},
      {"measurement": "Japonica 1 plant response rating", "setting": "Japonica rice; Rate 8 g/ha", "result": 0},
      {"measurement": "Japonica 2 plant response rating", "setting": "Japonica rice; Rate 8 g/ha", "result": 15},
      {"measurement": "Japonica 1 plant response rating", "setting": "Japonica rice; Rate 16 g/ha", "result": 20},
      {"measurement": "Japonica 2 plant response rating", "setting": "Japonica rice; Rate 16 g/ha", "result": 20},
      {"measurement": "Japonica 1 plant response rating", "setting": "Japonica rice; Rate 32 g/ha", "result": 40},
      {"measurement": "Japonica 2 plant response rating", "setting": "Japonica rice; Rate 32 g/ha", "result": 30},
      {"measurement": "Japonica 1 plant response rating", "setting": "Japonica rice; Rate 64 g/ha", "result": 50},
      {"measurement": "Japonica 2 plant response rating", "setting": "Japonica rice; Rate 64 g/ha", "result": 35},
      {"measurement": "Japonica 1 plant response rating", "setting": "Japonica rice; Rate 125 g/ha", "result": 75},
      {"measurement": "Japonica 2 plant response rating", "setting": "Japonica rice; Rate 125 g/ha", "result": 45},
      {"measurement": "Field violet plant response rating", "setting": "field violet; Rate 16 g/ha", "result": 100},
      {"measurement": "Field violet plant response rating", "setting": "field violet; Rate 32 g/ha", "result": 100},
      {"measurement": "Field violet plant response rating", "setting": "field violet; Rate 64 g/ha", "result": 100},
      {"measurement": "Field violet plant response rating", "setting": "field violet; Rate 125 g/ha", "result": 100}
    ]}
  ]
}
